Measured values taken from article PMC11040670, “Mechanistic and Kinetic Insights into Cellular Uptake of Biomimetic Dinitrosyl Iron Complexes and Intracellular Delivery of NO for Activation of Cytoprotective HO-1” (JACS Au, 2024).
Marks after values point to notes of the source that are not given here.

Key:
deoxyMb = assay: Direct transfer of NO to deoxyMb yielding MbNO (UV–vis); format: biochemical; conditions: deoxyMb 5 μM/Cys 200 μM, generated [(NO)2Fe(SR)(SCys)]n−, phosphate buffer (pH 7.4), anaerobic
Method: After addition of 30 μL of 500 μM stock solution of DNIC–COOH (in DMSO) to a 4 mL quartz cuvette containing 5 μM metMb and 200 μM Cys in 3 mL of 25 mM PBS (pH 7.4), UV–vis spectra for this mixture solution were measured every 30 min. Transformation of […] into MbNO was achieved after reaction for 4 h based on the complete shift of UV–vis absorption bands from (410, 502, and 629) nm to (419, 548, and 578) nm.
Reactions of (a) 5 μM of DNIC–COOMe with 5 μM of metMb in the presence of 200 μM of Cys, (b) 5 μM of DNIC–COOH/DNIC–COOMe with 5 μM of deoxyMb in the presence of 200 μM of Cys, and (c) 5 μM of DNIC–COOH/DNIC–COOMe with 5 μM of metMb in the presence of 50 mg/mL BSA were performed under a similar manner.

MSC [1] = assay: Survival of MSC under oxygen–glucose-deprived (OGD) condition; format: cell-based, human; conditions: MSC pretreated with DNIC, glucose-free DMEM, 1% oxygen, 48 h
Method: (§1) Cell viability study of MSC, N2a, and HCEC cells with or without the treatment of DNIC–COOH was performed using a Cell Counting Kit-8 (IMT Formosa New Materials Co., Ltd., Taiwan) according to the manufacturer’s protocol. Briefly, cells were seeded into a 96-well plate at a density of 4 × 10^3 cells/well for MSC, 1 × 10^4 cells/well for N2a, and 8 × 10^3 cells/well for HCEC, respectively, and incubated overnight. On the next day, cells were treated with DNIC–COOH at different concentrations and incubated for 24 h. The culture medium was then removed before the cells were washed with DPBS. After addition of fresh medium containing CCK-8 solution to the cells and incubation for 1–3 h, the absorbance at 450 nm was then measured on a microplate reader (SpectraMax iD3, Molecular Devices, San Jose, CA) with a reference wavelength of 650 nm. Three independent experiments were executed, and the results were represented as mean ± SEM% (n = 3) with the untreated cells (control) as 100% viability. […]
To simulate the microenvironment of ischemic tissues, the MSC cells with or without DNIC priming were cultured using glucose-free DMEM in a humidified hypoxia incubator (1% oxygen; Heracell VIOS 160i, Thermo Fisher Scientific) for 48 h. Cell viability was assessed by live/dead staining or CCK-8 assay.

MSC [2] = assay: Cytoprotection of MSC against H2O2 oxidative stress (CCK-8, live/dead); format: cell-based, human; conditions: MSC pretreated 8 h (100 μM DNIC–COOH or 2.5 μM DNIC–COOMe), then 250 μM H2O2 24 h
Method: as §1, with “nm.” for “nm. Three independent experiments were executed, and the results were represented as mean ± SEM% (n = 3) with the untreated cells (control) as 100% viability.”
To investigate the capacity of DNIC preconditioning to protect the MSC cells against elevated oxidative stress, cells were pretreated with 2.5 μM of DNIC–COOMe or 100 μM of DNIC–COOH for 8 h before being incubated with 250 μM H2O2 for another 24 h. Cell viability was evaluated by live/dead staining or CCK-8 assay. In a similar manner, DNIC-induced cytoprotective effect in HCECs was evaluated through pretreatment of 1 μM of DNIC–COOMe or 75 μM of DNIC–COOH for 24 h.

cGMP = assay: DNIC-induced cGMP formation in MSC (confocal immunofluorescence); format: cell-based, human; conditions: 100 μM DNIC–COOH or 2.5 μM DNIC–COOMe, 2 h
Method: The MSC cells were plated on a cover glass (18 mm in diameter) loaded into a 24-well plate at a density of 1.7 × 10^3 cells/well until the desired confluency was reached. After the culture media were removed, 100 μM of DNIC–COOH (or 2.5 μM of DNIC–COOMe) was added to the cell culture and incubated for 2 h. The culture media were removed before the MSC cells were washed three times with PBS, whereas the washed MSC cells were further fixed with 4% paraformaldehyde (PFA) solution for 15 min at room temperature. After the PFA solution was removed, the MSC cells were washed twice with PBS for 3 min and permeabilized using 0.1% Triton X-100 (in PBS) at room temperature for 4 min. Subsequently, the MSC cells were washed twice with PBS for 3 min and incubated with a blocking buffer (2.5% BSA in PBS) at room temperature for 30 min. Then, the MSC cells were incubated with primary antibody solution (1:1000 for rabbit anti-cGMP antibody, purchased from Biorbyt, Cambridge, U.K.) at room temperature for 1 h before the MSC cells were washed three times with PBS for 3 min. Cover glasses containing the fixed MSC cells were mounted onto a microscope slide loaded with Fluoroshield mounting medium with DAPI to stain the nuclei before the optical images were captured using a confocal imaging system (Leica TCS-SP-X AOBS).

Row | SMILES | reaction time for complete conversion of deoxyMb into MbNO (deoxyMb) | reaction time for complete conversion of deoxyMb into MbNO (deoxyMb; listed as DNIC-COOH) [h] | cell viability under OGD condition (MSC [1]) | survival rate (MSC [2]) [%] | formation of cGMP (cGMP) | reaction time for complete conversion of deoxyMb into MbNO (deoxyMb; listed as DNIC-COOMe) [h]
1 | O=[N][Fe]1([N]=O)[SH](CCC(=O)O)[Fe]([N]=O)([N]=O)[SH]1CCC(=O)O (stereo not shown) [DNIC–COOH, [(NO)2Fe(μ-SCH2CH2COOH)2Fe(NO)2]] | 3.5 ^f h | 3.5 | increase in the number of viable cells | 58.7 | elevated formation of cGMP | 
2 | COC(=O)CC[SH]1[Fe]([N]=O)([N]=O)[SH](CCC(=O)OC)[Fe]1([N]=O)[N]=O (stereo not shown) [DNIC–COOMe, [(NO)2Fe(μ-SCH2CH2COOCH3)2Fe(NO)2]] | 2.0 ^f h |  | comparable to that of OGD group | 35.8 | elevated formation of cGMP | 2.0
